Measured values published in patent US9730979B2, “Methods for decreasing set in inhibiting protein phosphatase 2A (PP2A) and/or increasing the activity of cyclin-dependent kinase 5 (CDK5) by an APOE peptide” (COGNOSCI, INC., priority 2006, dated 2017).

Columns and labels:
tau = assay: Okadaic acid induced phospho-tau (AT-8) in mouse cortex; type: in vivo, C57B1/6 mice
Experimental: C57B1/6 mice were injected intravenously with increasing concentrations of okadaic acid (OA) (calculated by administration of a sufficient quantity of OA to produce the indicated μM concentration in a blood volume of 2 mL). One hour after OA was administered, mice were euthanized by decapitation and the brain removed. The cortex was isolated, flash frozen with liquid nitrogen, ground to a fine powder and an extract made by homogenization of the powder in an extraction buffer containing protease and phosphatase inhibitors. Protein extracts were separated by SDS-PAGE, transferred to nitrocellulose membranes, and probed for phospho-tau using the AT-8 antibody that recognizes phosphorylation of Ser202 and Thr205 of tau. Phospho-tau signals were normalized to signals from GAPDH protein. […] To determine the effect of COG peptides on the phosphorylation status of the tau protein, 5 mg/kg of COG 1410 was administered to the mice by subcutaneous injection 15 minutes prior to OA administration. FIG. 11B depicts the results of this series of experiments.

PP2A = PP2A activity (rate of phosphate release) of PP2A immunoprecipitated from treated RAW cells; type: cell-based, mouse; details: 10 nM okadaic acid alone, 1 hour
Experimental: Mouse macrophagic RAW cells were incubated with either 100 ng/mL LPS, 1 μM COG 112 (COG 133 conjugated to antennapedia), LPS and COG 112, 10 nM okadaic acid (an inhibitor of PP2A), or okadaic acid and COG 112. After 1 hour, cells were lysed and PP2A was immunoprecipitated by adding an antibody targeted to the catalytic C-subunit of PP2A. Half of the immunoprecipitate was separated by SDS-PAGE, blotted on to nitrocellulose, and probed with an anti-PP2AC antibody. The remaining portion was assayed for activity by adding 125 μL assay cocktail containing a phospho-threonine substrate peptide to the immunoprecipitated enzyme. After incubating at 37° C. with shaking, a 25 μL aliquot was removed and added to an ammonium molybdate solution (Upstate) that chelates free phosphate and changes color upon chelate formation. Aliquots were removed at various time intervals and the amount of free phosphate released from the peptide was determined by comparison to a phosphate standard curve. The rate of phosphate release was determined by linear fit to the time course data and was normalized to the relative PP2A concentration. PP2A activity, measured by the rate of phosphate release, is increased in the presence of COG 112 (FIG. 8), as would be expected if SET inhibition of PP2A was eliminated by binding of COG112 to SET. […]

SET bound to P35 [1] = biological target: T1, SET bound to P35 (Homo sapiens, UniProt Q01105); assay: Co-precipitation of SET with immunoprecipitated p35 from human brain lysate; type: binding; details: 50 μM peptide, SET normalized to P35
SET, sequence (Q9EQU5 37-289 limits assumed): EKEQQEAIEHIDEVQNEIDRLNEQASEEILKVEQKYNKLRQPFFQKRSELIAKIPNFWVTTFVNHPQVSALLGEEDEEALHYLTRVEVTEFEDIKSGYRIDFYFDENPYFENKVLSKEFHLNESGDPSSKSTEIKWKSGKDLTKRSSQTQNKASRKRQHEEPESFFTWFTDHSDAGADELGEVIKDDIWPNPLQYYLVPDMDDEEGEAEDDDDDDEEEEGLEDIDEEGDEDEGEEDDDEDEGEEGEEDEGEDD
T1 construct: from tissue; host or cells: human brain lysate
T1 sequence (Q01105 2-290 limits assumed): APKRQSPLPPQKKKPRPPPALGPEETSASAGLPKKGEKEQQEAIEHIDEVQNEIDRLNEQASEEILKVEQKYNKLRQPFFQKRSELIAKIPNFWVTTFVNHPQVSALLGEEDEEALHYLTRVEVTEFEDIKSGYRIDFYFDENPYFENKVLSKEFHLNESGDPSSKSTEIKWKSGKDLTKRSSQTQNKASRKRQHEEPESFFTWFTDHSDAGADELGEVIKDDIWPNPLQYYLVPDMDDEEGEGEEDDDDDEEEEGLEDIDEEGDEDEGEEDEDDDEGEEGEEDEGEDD
Experimental: (§1) FIG. 13. Human brain lysate was incubated with 50 μM of each of the peptides indicated. P35 was subsequently immunoprecipitated from 1 mg of the peptide-treated lysate. Western blots were performed to measure co-precipitation of SET protein (left panel). […] Signals from SET were normalized to signals for P35 protein.
(§2) Cdk5 requires the activator protein p35 for kinase activity. Although cdk5 is ubiquitously expressed, p35 expression is restricted to neurons of the central nervous system, thus limiting cdk5 associated kinase activity to these neurons. Cleavage of p35 to p25 disregulates cdk5 kinase activity causing the kinase to become constitutively active. Constitutive kinase activity of cdk5/p25 has been implicated in the aberrant hyperphosphorylation of tau protein and subsequent neurodegeneration found in Alzheimer's disease and other tauopathies. […] Therefore, it may be possible to reduce cdk5 kinase activity by interfering with the interaction between SET and the cdk5/p35 complex. To test this possibility, the effects of COG peptides on the binding of SET to p35 were examined. Mouse brain lysates (FIG. 12) or human brain lysates (FIG. 13) were incubated with 50 μM of COG 056 (reverse sequence of COG133), COG 112, COG133, or COG 1410. Activator protein p35 was immunoprecipitated with an anti-p35 antibody and protein A agarose beads from 1 mg of the peptide-treated brain lysates. […]

[2] = relative to COG 133; cited from earlier work
SET from human brain = biological target: T2, SET from human brain (Homo sapiens, UniProt Q01105); assay: Biotinylated COG 133 pull-down of SET from human brain extract, competition with excess peptide; type: binding
T2 construct: pulls down SET from human brain extracts; from tissue; host or cells: human brain homogenate
T2 sequence (Q01105 whole entry): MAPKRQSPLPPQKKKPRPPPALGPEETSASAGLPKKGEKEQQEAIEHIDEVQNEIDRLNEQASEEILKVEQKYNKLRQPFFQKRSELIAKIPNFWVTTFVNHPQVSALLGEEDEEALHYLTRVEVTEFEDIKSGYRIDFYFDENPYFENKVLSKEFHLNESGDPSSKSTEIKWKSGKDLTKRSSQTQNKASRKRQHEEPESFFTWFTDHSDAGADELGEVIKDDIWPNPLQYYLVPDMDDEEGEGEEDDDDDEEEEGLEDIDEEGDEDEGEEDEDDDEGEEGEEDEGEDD
Experimental: Human brain was homogenized in PBS buffer with a protease cocktail tablet and centrifuged to remove cellular debris. 100 ng of biotinylated COG 133 (COG 133 peptide with biotin attached to the N-terminus) was added to 1 mg of clarified supernatant. After 4 hours of incubation at room temperature, 50 μL of a 50% slurry of streptavidin agarose beads were added. After an additional hour of incubation, the beads were pelleted by centrifugation. The beads were washed 3 times with PBS buffer containing 0.1% tween 20 detergent. 50 μL of a 2×SDS PAGE loading buffer (containing DTT) were added to the washed beads and the samples were boiled for 2 minutes. Polyacrylamide gels were loaded with either 40 μL of extract per lane or 10 μg of total brain extract protein (control lane) and run in SDS buffer. […] Membranes were then probed with an anti-SET antibody. Blots were developed with Enhanced Chemiluminescence substrates (GE healthcare) and visualized by exposure to film.
In a related experiment, derivatives of the COG 133 peptide were tested for SET binding. Human brain extracts were prepared as described above. A 10-fold excess of COG 1410 or COG 112 peptide was added to the brain extract and incubated for 10 minutes. Next, 100 ng of biotinylated COG 133 was added to the extract and incubated for four hours at room temperature. […]

SET bound to P35 [3] = biological target: T3, SET bound to P35 (Mus musculus, UniProt Q9EQU5); assay: Co-precipitation of SET with immunoprecipitated p35 from mouse brain lysate; type: binding; details: 50 μM peptide, SET normalized to P35
T3 construct: from tissue; host or cells: mouse brain lysate
T3 sequence (Q9EQU5 2-289 limits assumed): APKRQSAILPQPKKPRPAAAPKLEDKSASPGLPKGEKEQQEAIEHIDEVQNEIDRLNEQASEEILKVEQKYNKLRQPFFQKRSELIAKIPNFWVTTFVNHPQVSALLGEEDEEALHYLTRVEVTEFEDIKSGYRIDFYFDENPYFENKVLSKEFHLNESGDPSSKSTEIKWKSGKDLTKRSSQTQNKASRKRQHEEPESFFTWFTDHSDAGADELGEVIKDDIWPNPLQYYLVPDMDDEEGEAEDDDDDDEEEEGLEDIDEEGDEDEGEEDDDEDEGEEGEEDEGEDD
Experimental: as §1, with “12. Mouse” for “13. Human”, “protein. Results with COG 133 are not shown and were inconclusive possibly due to unequal protein loading.” for “protein.”
as §2, with “1410.” for “1410. Activator protein p35 was immunoprecipitated with an anti-p35 antibody and protein A agarose beads from 1 mg of the peptide-treated brain lysates.”

p38 MAP kinase = assay: LPS-induced phosphorylation of p38 MAP kinase in BV2 microglia, western blot; type: cell-based, mouse; details: LPS plus peptide, 30 minutes, normalized to GAPDH
Experimental: (§3) Mouse BV2 microglia were incubated with either a negative control, LPS, or LPS and COG 133 (SEQ ID NO: 1) peptide for 30 minutes. Cells were lysed and a clarified extract prepared by centrifugation. Polyacrylamide gels were loaded with 30 μg of extract per lane and run in SDS buffer. […] Membranes were then probed with phospho-specific p38 MAP kinase, MKK 3/6, JNK, ERK, and IκB antibodies. Membranes were developed with Enhanced Chemiluminescence substrates (GE healthcare) and visualized by exposure to film. Membranes were then stripped and reprobed for total p38, JNK, Erk or IκB using non phospho-specific antibodies as previously described. In some experiments, the membranes were probed for GAPDH protein. Densitometry analysis of the western blots was conducted and the signals from phosphorylated p38 MAP kinase were normalized to those from GAPDH. […] PP2A has been reported to bind and dephosphorylate p38 MAP kinase (Sundaresan & Farndale 2002 FEBS Letters 528, 139). Given that COG peptides can increase PP2A activity (Example 5), it is likely that the dephosphorylation of p38 MAP kinase occurs through the activation of PP2A by COG binding to SET.

NFκB = assay: Nuclear NFκB in LPS-stimulated colonic epithelial cells, gel shift with radiolabeled oligonucleotide; type: cell-based; details: nuclear extracts
Experimental: In the dephosphorylated state, IκB binds to the transcription factor NFκB and prevents it from translocating to the nucleus to activate transcription of pro-inflammatory cytokines. […] A radiolabeled oligonucleotide containing a NFκB binding site was added to the proteins from the nuclear extracts and the proteins were subsequently separated by non-denaturing polyacrylamide gel electrophoresis. The amount of NFκB present in the nuclear extracts was detected by autoradiography (FIG. 10D). Nuclear NFκB was reduced in the presence of COG 133 providing further evidence that this signal transduction cascade is suppressed in cells treated with ApoE peptides.

BV2 cells [4] = assay: LPS-induced nitric oxide production in BV2 cells with and without siRNA to SET; type: cell-based, mouse; details: BV2 cells transfected with siRNA to SET
Experimental: See PCT application PCT/US05/31431 which claims priority to U.S. Provisional Applications 60/606,506, filed Sep. 2, 2004, 60/608,148, filed Sep. 9, 2004, and 60/606,507, filed Sep. 2, 2004 which are herein incorporated by reference in their entireties. BV2 cells were transfected with siRNA to SET. BV2 cells transfected with the siRNA and BV2 cells not transfected with the siRNA were treated with COG 133, LPS, or LPS and COG 133 as described in the above-referenced patent applications. Untreated BV2 cells were used as a control. FIG. 3 is a graph of the results. Bars three and seven correspond to LPS without siRNA to SET and with siRNA to SET, respectively. […] Similarly, there is a reduction in nitric oxide in the group treated with LPS and COG 133 and transfected with siRNA to SET compared to the group treated with LPS and COG 133 and not transfected with siRNA (lanes 8 and 4, respectively).

[5] = test system: c-Jun N-terminal kinase (JNK); assay: LPS-induced phosphorylation of JNK in BV2 microglia, western blot; type: cell-based, mouse; details: LPS plus peptide, 30 minutes
Experimental: as §3

human THP1 cells = assay: LPS-induced TNFα production in human THP1 cells with and without siRNA to SET; type: cell-based; details: SET removed by siRNA-based silencing
From the text: Consistent with the mechanism of SET as an inhibitor of Protein Phosphatase 2A (PP2A), a reduction of the LPS-induced TNF response as well as elimination of the effect of COG 133 was observed when SET was removed from the cells.

IκB = assay: LPS-induced phosphorylation of IκB in BV2 microglia, western blot; type: cell-based, mouse; details: LPS plus peptide, 30 minutes
Experimental: as §3

BV2 cells [6] = details: without siRNA; previously shown; cited from earlier work
[7] = test system: extracellular regulated kinase (ERK) 1/2; assay: LPS-induced phosphorylation of ERK 1/2 in BV2 microglia, western blot; type: cell-based, mouse; details: LPS plus peptide, 30 minutes
Experimental: as §3

**Q.** With `C=C1[C@@H](O)[C@@H]2O[C@]3(CC[C@H](/C=C/[C@@H](C)[C@@H]4CC(C)=C[C@@]5(O[C@H](C[C@@](C)(O)C(=O)O)CC[C@H]5O)O4)O3)CC[C@H]2O[C@@H]1[C@@H](O)C[C@H](C)[C@H]1O[C@@]2(CCCCO2)CC[C@H]1C` [okadaic acid, reference compound] as the compound, how does the “phospho-tau in the cortex” value (tau; okadaic acid intravenously, increasing concentrations, one hour, normalized to GAPDH) read?
**A.** concentration-dependent increase

**Q.** What about the “baseline PP2A activity” value (PP2A) of the same compound?
**A.** decrease in baseline PP2A activity

**Q.** For Ac-AS-Aib-LRKL-Aib-KRLL-NH2 [COG 1410], which “amount of SET bound to P35” value (SET bound to P35 [1]) is on record?
**A.** reduce the amount of SET bound to P35

**Q.** And the “gain in therapeutic window as compared to COG 133” value [2]?
**A.** 4 fold

**Q.** What about the “phosphorylated tau protein induced by OA” value (tau; mouse, in vivo) of the same compound?
**A.** reduced the amount of phosphorylated tau protein

**Q.** And the “competition with biotinylated COG 133 for binding to SET” value (SET; BV2 cells, anti-SET western blot)?
**A.** competes with COG 133 in binding to SET

**Q.** What about the “SET protein pulled down with biotinylated COG 133” value (SET from human brain; 10-fold excess of competitor peptide, human brain extract) of the same compound?
**A.** reduces the amount of SET protein pulled down

**Q.** And the “amount of SET bound to P35” value (SET bound to P35 [3])?
**A.** reduce the amount of SET bound to P35

**Q.** Which results are given for LRVRLASHLRKLRKRLL [COG 133]?
**A.** phosphorylation of p38 MAP kinase (p38 MAP kinase): decrease in phosphorylation; nuclear NFκB (NFκB): reduced; nitric oxide, LPS+COG 133+siRNA versus LPS+siRNA (BV2 cells [4]): not a significant difference; amount of SET bound to P35 (SET bound to P35 [1]): reduce the amount of SET bound to P35; LPS-induced phosphorylation of JNK [5]: reduces the LPS-induced phosphorylation; effect in reducing LPS-induced TNFα production (human THP1 cells): eliminated; LPS-induced phosphorylation of IκB (IκB): reduces the LPS-induced phosphorylation; LPS-induced nitric oxide production (BV2 cells [6]): reduce LPS-induced nitric oxide production; LPS-induced phosphorylation of ERK [7]: reduces the LPS-induced phosphorylation

**Q.** Which results are given for “biotinylated COG 133 [reference compound]”?
**A.** binding to SET (SET): uniquely bind; binding to SET (SET from human brain; 100 ng peptide in 1 mg human brain supernatant, streptavidin pull-down): binds to and pulls down SET
